Source: patent publication US12686687B2, “Compounds and uses thereof” (Foghorn Therapeutics Inc., priority 2019, dated 2026)
Where two headings read alike, the source gives them in different places.

Target: T1, Nanoluciferase-BRD9 fusion protein (3×FLAG-NLuc-BRD9) in SYO-1 cells (Homo sapiens, UniProt Q9H8M2)
T1 construct: expressed in transfected cells; host or cells: SYO-1
T1 sequence (Q9H8M2 1-597): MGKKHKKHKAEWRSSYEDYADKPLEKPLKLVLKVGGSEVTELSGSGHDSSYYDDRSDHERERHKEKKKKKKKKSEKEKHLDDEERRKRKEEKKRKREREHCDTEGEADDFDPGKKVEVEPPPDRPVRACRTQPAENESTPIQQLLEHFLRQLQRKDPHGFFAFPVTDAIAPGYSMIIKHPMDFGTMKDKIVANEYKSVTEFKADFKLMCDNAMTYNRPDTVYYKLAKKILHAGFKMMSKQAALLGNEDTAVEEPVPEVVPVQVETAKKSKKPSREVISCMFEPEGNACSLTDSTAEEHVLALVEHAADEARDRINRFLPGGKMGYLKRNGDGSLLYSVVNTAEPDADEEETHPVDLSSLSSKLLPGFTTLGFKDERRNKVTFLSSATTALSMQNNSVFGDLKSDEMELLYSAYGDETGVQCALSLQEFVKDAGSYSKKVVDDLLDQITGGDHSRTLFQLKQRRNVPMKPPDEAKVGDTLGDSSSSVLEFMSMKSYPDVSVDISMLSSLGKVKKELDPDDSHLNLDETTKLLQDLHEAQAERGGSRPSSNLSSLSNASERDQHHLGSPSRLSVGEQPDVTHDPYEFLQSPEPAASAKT
Assay: SYO1 BRD9 NanoLuc degradation assay
Type: cell-based
Conditions: SYO-1 cells expressing 3×FLAG-NLuc-BRD9, 6 hours incubation, 1 μM top dose, read-out: SYO1 BRD9-NanoLuc degradation IC50
Method: Procedure: A stable SYO-1 cell line expressing 3×FLAG-NLuc-BRD9 was generated. On day 0 cells were seeded in 30 μL media into each well of 384-well cell culture plates. The seeding density was 8000 cells/well. On day 1, cells were treated with 30 nL DMSO or 30 nL of 3-fold serially DMSO-diluted compounds (10 points in duplicates with 1 μM as final top dose). Subsequently plates were incubated for 6 hours in a standard tissue culture incubator and equilibrated at room temperature for 15 minutes. Nanoluciferase activity was measured by adding 15 μL of freshly prepared Nano-Glo Luciferase Assay Reagent (Promega N1130), shaking the plates for 10 minutes and reading the bioluminescence using an EnVision reader. • Results: The Inhibition % was calculated using the following formula: % Inhibition=100×(LumHC−LumSample)/(LumHC−LumLC). DMSO treated cells are employed as High Control (HC) and 1 μM of a known BRD9 degrader standard treated cells are employed as Low Control (LC).

Structure (SMILES) | DC50 (Table 6C) [nM] | DC50 (Table 6B) [nM]
COc1cc(-c2cn(C)c(=O)c3ocnc23)cc(OC)c1CN1CCC2(CC1)CN(c1ccc3c(c1)C(=O)N(C1CCC(=O)NC1=O)C3)C2 (stereo not shown) [Compound D217] | < 10 | 
COc1cc(-c2cn(C)c(=O)c3cc(C(=O)NC4CCN(C(=O)CN5CCN(c6ccc7c(c6)C(=O)N(C6CCC(=O)NC6=O)C7=O)CC5)CC4)sc23)cc(OC)c1CN(C)C (stereo not shown) [Compound D77] |  | < 10
COCc1cc2c(=O)n(C)cc(-c3cc(OC)c(CN4CCC5(CC4)CN(c4ccc6c(c4)C(=O)N(C4CCC(=O)NC4=O)C6)C5)c(OC)c3)c2s1 (stereo not shown) [Compound D119] | < 10 | 
COc1cc(-c2c(C)n(C)c(=O)c3cc(C(=O)NC4CCN(C)CC4(F)F)sc23)cc(OC)c1CN1CC(CN2CCC3(CC2)CN(c2ccc4c(c2)C(=O)N(C2CCC(=O)NC2=O)C4)C3)C1 (stereo not shown) [Compound D172] | > 1000 | 
COc1cc(-c2cn(C)c(=O)c3cc(C(=O)NC4CCN(C(=O)CCCCOc5cccc6c5C(=O)N(C5CCC(=O)NC5=O)C6=O)CC4)sc23)cc(OC)c1CN1CCC1 (stereo not shown) [Compound D29] |  | < 10
COc1cc(OC)cc(-c2cn(C)c(=O)c3cc(C(=O)NC4CN(c5ccc6c(c5)C(=O)N(C5CCC(=O)NC5=O)C6)C4)sc23)c1 (stereo not shown) [Compound D115] | < 10 | 
COc1cc(-c2cn(C)c(=O)c3occc23)cc(OC)c1CN1CC(CN2CCC3(CC2)CN(c2ccc4c(c2)C(=O)N(C2CCC(=O)NC2=O)C4)C3)C1 (stereo not shown) [Compound D21] |  | < 10
COc1cc(OC)cc(-c2cn(C)c(=O)c3cc(C(=O)NC4CCN(C5CCN(c6ccc7c(c6)C(=O)N(C6CCC(=O)NC6=O)C7)CC5)CC4(F)F)sc23)c1 (stereo not shown) [Compound D98] | < 10 | 
COc1cc(-c2c(C)n(C)c(=O)c3ccsc23)cc(OC)c1CN1CCC(CN2CCC3(CC2)CN(c2ccc4c(c2)C(=O)N(C2CCC(=O)NC2=O)C4)C3)CC1 (stereo not shown) [Compound D153] | < 10 | 
COc1cc(-c2cn(C)c(=O)c3cc(C(=O)NC4CCN(c5ccc6c(c5)C(=O)N(C5CCC(=O)N(C)C5=O)C6)CC4(F)F)sc23)cc(OC)c1CN(C)C (stereo not shown) [Compound D143] | > 1000 | 
COc1cc(-c2cn(C)c(=O)c3cc(C(=O)NC4CCN(C)CC4(F)F)sc23)cc(OC)c1CN1CCC(CCN2CCN(c3ccc4c(c3)C(=O)N(C3CCC(=O)NC3=O)C4=O)CC2)CC1 (stereo not shown) [Compound D26] |  | < 10
COc1cc(-c2cn(C)c(=O)c3cc(C(=O)NC4CCC(N(C)CCCCOc5cccc6c5C(=O)N(C5CCC(=O)NC5=O)C6=O)CC4)sc23)cc(OC)c1CN(C)C (stereo not shown) [Compound D80] |  | > 100
COc1cc(-c2cn(C)c(=O)c3cc(C(=O)NC4CCN(CCC5CCN(c6ccc7c(c6)CN(C6CCC(=O)NC6=O)C7=O)CC5)CC4(F)F)sc23)cc(OC)c1CN(C)C (stereo not shown) [Compound D102] | < 10 | 
COc1cc(-c2cn(C)c(=O)c3cc(C(=O)NC4CCCN(CCCCCOc5cccc6c5C(=O)N(C5CCC(=O)NC5=O)C6=O)CC4)sc23)cc(OC)c1CN(C)C (stereo not shown) [Compound D88] |  | > 10
COc1cc(-c2cn(C)c(=O)c3cc(C(=O)NC4CCC5CN(CCN6CCN(c7ccc8c(c7)C(=O)N(C7CCC(=O)NC7=O)C8=O)CC6)CC54)sc23)cc(OC)c1CN(C)C (stereo not shown) [Compound D38] |  | < 10
COc1cc(-c2cn(C)c(=O)c3cc(C(=O)N[C@@H]4CCN(C5CCN(c6ccc7c(c6)C(=O)N([C@@H]6CCC(=O)NC6=O)C7)CC5)CC4(F)F)sc23)cc(OC)c1CN(C)C [Compound D134] | < 10 | 
COc1cc(-c2cn(C)c(=O)c3cc(C#N)sc23)cc(OC)c1CN1CCC2(CC1)CN(c1ccc3c(c1)C(=O)N(C1CCC(=O)NC1=O)C3)C2 (stereo not shown) [Compound D139] | < 10 | 
COc1cc(-c2cn(C)c(=O)c3cc(C(=O)NC4CCN(c5ccc(OC6CCC(=O)NC6=O)cc5)CC4)sc23)cc(OC)c1CN(C)C (stereo not shown) [Compound D105] | < 10 | 
COc1cc(-c2cn(C)c(=O)c3cc(C(=O)NC4CN(C5CCN(c6ccc7c(c6)CN(C6CCC(=O)NC6=O)C7=O)CC5)CC4(F)F)sc23)cc(OC)c1CN(C)C (stereo not shown) [Compound D181] | < 10 | 
COc1cc(-c2cn(C)c(=O)c3cc(C(=O)NC4CCN(c5ccc6c(c5)C(=O)N(C5CCC(=O)NC5=O)C6=O)CC4(F)F)sc23)cc(OC)c1CN(C)C (stereo not shown) [Compound D192] | < 10 | 

Structure (SMILES) | DC50 (Table 6C) [nM] | DC50 (Table 6B) [nM]
COc1cc(-c2cn(C)c(=O)c3cc(C(=O)NC4CCN(c5ccc6c(c5)C(=O)N(C5CCC(=O)NC5=O)C6)C4)sc23)cc(OC)c1CN(C)C (stereo not shown) [Compound D114] | < 10 | 
COc1cc(-c2cn(C)c(=O)c3cc(C(=O)NC4CC5CC4CN5CCCN4CCN(c5ccc6c(c5)C(=O)N(C5CCC(=O)NC5=O)C6=O)CC4)sc23)cc(OC)c1CN(C)C (stereo not shown) [Compound D69] |  | > 10
COc1cc(-c2cn(C)c(=O)c3cc(C(=O)NCC4CC5(CCN(C(=O)CCN6CCN(c7ccc8c(c7)C(=O)N(C7CCC(=O)NC7=O)C8=O)CC6)CC5)CO4)sc23)cc(OC)c1CN(C)C (stereo not shown) [Compound D48] |  | > 10
COc1cc(-c2cn(C)c(=O)c3cc(C(=O)NC4CC5(CCN(CCN6CCN(c7ccc8c(c7)C(=O)N(C7CCC(=O)NC7=O)C8=O)CC6)CC5)C4)sc23)cc(OC)c1CN(C)C (stereo not shown) [Compound D41] |  | < 10
Cn1cc(-c2cccc(C(F)(F)F)c2)c2sc(C(=O)NC3CC4(CCN(c5ccc6c(c5)C(=O)N(C5CCC(=O)NC5=O)C6)CC4)C3)cc2c1=O (stereo not shown) [Compound D117] | < 10 | 
COc1cc(-c2cn(C)c(=O)c3cc(C(=O)NCC4CC45CCN(C(=O)CCN4CCN(c6ccc7c(c6)C(=O)N(C6CCC(=O)NC6=O)C7=O)CC4)CC5)sc23)cc(OC)c1CN(C)C (stereo not shown) [Compound D67] |  | > 10
COc1cc(-c2cn(C)c(=O)c3ccsc23)cc(OC)c1CN1CC(Oc2ccc3c(c2)C(=O)N(C2CCC(=O)NC2=O)C3=O)C1 (stereo not shown) [Compound D169] | < 10 | 
COc1cc(-c2cn(C)c(=O)c3cscc23)cc(OC)c1CN1CCC2(CC1)CN(c1ccc3c(c1)C(=O)N(C1CCC(=O)NC1=O)C3)C2 (stereo not shown) [Compound D216] | < 10 | 
COc1cc(-c2cn(C)c(=O)c3cc(C(=O)NC4CN(c5ccc6c(c5)CN(C5CCC(=O)NC5=O)C6=O)CC4(F)F)sc23)cc(OC)c1CN(C)C (stereo not shown) [Compound D180] | < 10 | 
COc1cc(-c2cn(C)c(=O)c3cc(C(=O)NC4CCN(CCN5CCN(c6ccc7c(c6)C(=O)N(C6CCC(=O)NC6=O)C7)CC5)CC4)sc23)cc(OC)c1CN(C)C (stereo not shown) [Compound D130] | < 10 | 
COc1cc(-c2cn(C)c(=O)c3cc(C(=O)NC4CCN(C5CCN(c6ccc7c(c6)C(=O)N(C6CCC(=O)NC6=O)C7)CC5)CC4(F)F)sc23)cc(OC)c1CN(C)C (stereo not shown) [Compound D24] |  | < 10
COc1cc(-c2cn(C)c(=O)c3cc(C(=O)NC4CCN(CCN5CCN(c6ccc7c(c6)CN(C6CCC(=O)NC6=O)C7=O)CC5)CC4(F)F)sc23)cc(Cl)c1CN(C)C (stereo not shown) [Compound D17] |  | < 10
COc1cc(-c2cn(C)c(=O)c3cc(C#N)sc23)cc(OC)c1CN1CCC(CN2CCC3(CC2)CN(c2ccc4c(c2)C(=O)N(C2CCC(=O)NC2=O)C4)C3)CC1 (stereo not shown) [Compound D101] | < 10 | 
COc1cc(-c2cn(C)c(=O)c3ncsc23)cc(OC)c1CN1CCC2(CC1)CN(c1ccc3c(c1)C(=O)N(C1CCC(=O)NC1=O)C3=O)C2 (stereo not shown) [Compound D202] | < 10 | 
COc1cc(-c2cn(C)c(=O)c3cc(C(=O)NC4CCN(c5ccc6c(c5)CN(C5CCC(=O)NC5=O)C6=O)CC4(F)F)sc23)cc(OC)c1CN(C)C (stereo not shown) [Compound D164] | < 10 | 
COc1cc(-c2cn(C)c(=O)c3cc(C(=O)NC4CCCN(CCCCCOc5ccc6c(c5)C(=O)N(C5CCC(=O)NC5=O)C6=O)CC4)sc23)cc(OC)c1CN(C)C (stereo not shown) [Compound D87] |  | < 10
COc1cc(-c2cn(C)c(=O)c3cc(C(=O)NC4CC5(CCN(CCN6CCN(c7ccc8c(c7)C(=O)N([C@H]7CCC(=O)NC7=O)C8=O)CC6)C5)C4)sc23)cc(OC)c1CN(C)C (stereo partly shown) [Compound D66] |  | < 10
COc1cc(-c2cn(C)c(=O)c3cc(C(=O)NCC4CC5CN(C(=O)CCN6CCN(c7ccc8c(c7)C(=O)N(C7CCC(=O)NC7=O)C8=O)CC6)CC5C4)sc23)cc(OC)c1CN(C)C (stereo not shown) [Compound D34] |  | > 100
COc1cc(-c2cn(C)c(=O)c3cc(C(=O)NCC4CC45CCN(CCN4CCN(c6ccc7c(c6)C(=O)N(C6CCC(=O)NC6=O)C7=O)CC4)CC5)sc23)cc(OC)c1CN(C)C (stereo not shown) [Compound D57] |  | < 10
COc1cc(-c2cn(C)c(=O)c3cc(C)sc23)cc(OC)c1CN1CCC(CN2CCC3(CC2)CN(c2ccc4c(c2)C(=O)N(C2CCC(=O)NC2=O)C4=O)C3)CC1 (stereo not shown) [Compound D184] | < 10 | 
